Experiments:
Assay in all cases: relative viability (nuclei count vs DMSO), 5 days (fraction); higher = more cells survive
[1] = compound: CC1=CN2C(=O)C=C(N=C2C(=C1)C(C)NC3=CC=CC=C3)N4CCOCC4 [TGX 221] + Cc1nc(NC(=O)N2CCC[C@H]2C(N)=O)sc1-c1ccnc(C(C)(C)C(F)(F)F)c1 [Alpelisib] (partner 2 µM)
Outline: (§1)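 Lung cancer cell lines were pin-tool dosed in 1536-well plates on the day after seeding, with either a lone drug or a fixed anchor-drug dose plus five library-drug doses (not always all listed) in √10 steps. Nuclei were counted on 4× images after 5 days. Relative viability is the ratio of treated-well to vehicle-well nuclei counts, with each value a median of duplicate plates.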

[2] = compound: CC1=CN2C(=O)C=C(N=C2C(=C1)C(C)NC3=CC=CC=C3)N4CCOCC4 [TGX 221] + Cc1nc(Nc2ncc(C(=O)Nc3c(C)cccc3Cl)s2)cc(N2CCN(CCO)CC2)n1 [Dasatinib] (partner 0.075 µM)
Outline: as §1

[3] = compound: C1=CC=C(C(=C1)C2=CC=C(C=C2)C3=CSC4=C3C(=C(C(=O)N4)C#N)O)O + O=C(c1cc(Cc2n[nH]c(=O)c3ccccc23)ccc1F)N1CCN(C(=O)C2CC2)CC1 [Olaparib] (partner 8 µM)
Outline: as §1

[4] = compound: C1=CC=C(C(=C1)C2=CC=C(C=C2)C3=CSC4=C3C(=C(C(=O)N4)C#N)O)O + C[C@]1(O)C[C@@H](c2nc(-c3ccc4ccc(-c5ccccc5)nc4c3)c3c(N)nccn32)C1 [Linsitinib] (partner 1 µM)
Outline: as §1

Row | Cell Line | relative viability ([1]; first compound 0.08 µM) | relative viability ([1]; first compound 0.253 µM) | relative viability ([1]; first compound 0.8 µM) | relative viability ([1]; first compound 2.53 µM) | relative viability ([1]; first compound 8 µM) | relative viability ([2]; first compound 0.08 µM) | relative viability ([2]; first compound 0.253 µM) | relative viability ([2]; first compound 0.8 µM) | relative viability ([2]; first compound 2.53 µM) | relative viability ([2]; first compound 8 µM) | relative viability ([3]; first compound 0.08 µM) | relative viability ([3]; first compound 0.253 µM) | relative viability ([3]; first compound 0.8 µM) | relative viability ([3]; first compound 2.53 µM) | relative viability ([3]; first compound 8 µM) | relative viability ([4]; first compound 0.08 µM) | relative viability ([4]; first compound 0.253 µM) | relative viability ([4]; first compound 0.8 µM) | relative viability ([4]; first compound 2.53 µM) | relative viability ([4]; first compound 8 µM)
1 | NCI-H2023 | 0.599 | 0.452 | 0.524 | 0.311 | 0.268 | 0.481 | 0.481 | 0.592 | 0.537 | 0.407 | 0.467 | 0.49 | 0.495 | 0.487 | 0.607 | 0.671 | 0.713 | 0.591 | 0.605 | 0.592
2 | NCI-H2085 | 0.94 | 0.689 | 0.57 | 0.424 | 0.406 | 0.228 | 0.195 | 0.208 | 0.191 | 0.187 | 0.754 | 0.847 | 0.771 | 0.796 | 0.702 | 0.878 | 0.904 | 0.935 | 1.09 | 0.773
3 | NCI-H2087 | 0.978 | 1.13 | 1.13 | 1.12 | 1.31 | 1.02 | 0.75 | 0.646 | 0.9 | 0.993 | 0.513 | 0.587 | 0.667 | 0.811 | 0.496 | 1.14 | 1.04 | 0.946 | 1.08 | 0.966
4 | NCI-H2126 | 0.708 | 0.652 | 0.611 | 0.58 | 0.617 | 0.512 | 0.61 | 0.615 | 0.578 | 0.585 | 0.888 | 0.976 | 0.95 | 0.955 | 0.786 | 0.71 | 0.721 | 0.699 | 0.678 | 0.704
5 | NCI-H2228 | 0.693 | 0.468 | 0.551 | 0.523 | 0.403 | 0.508 | 0.471 | 0.517 | 0.474 | 0.398 | 0.425 | 0.604 | 0.568 | 0.613 | 0.575 | 0.623 | 0.627 | 0.686 | 0.648 | 0.666
6 | NCI-H2347 | 0.994 | 0.911 | 0.955 | 0.605 | 0.756 | 0.242 | 0.318 | 0.313 | 0.244 | 0.269 | 0.645 | 0.632 | 0.569 | 0.634 | 0.579 | 0.993 | 1.13 | 0.961 | 0.99 | 0.844
7 | NCI-H2405 | 0.586 | 0.615 | 0.582 | 0.531 | 0.463 | 0.235 | 0.206 | 0.22 | 0.205 | 0.179 | 0.896 | – | 0.928 | 0.825 | 0.878 | 0.972 | 1.05 | 0.956 | 0.831 | 0.848
8 | NCI-H3122 | 0.758 | 0.735 | 0.717 | 0.681 | 0.787 | 0.931 | 0.83 | 0.865 | 0.794 | 0.872 | 0.715 | 0.675 | 0.573 | 0.645 | 0.45 | 1.1 | 1.07 | 1.06 | 1.05 | 1.02
9 | PC-3 [JPC-3] | 1.01 | 0.978 | 1 | 0.929 | 0.894 | 0.893 | 0.934 | 1.02 | 0.93 | 0.925 | 1.11 | 1.37 | 1.15 | 1.23 | 1.24 | 1.1 | 1.06 | 0.989 | 0.952 | 1.09
10 | PC-14 | 1.01 | 0.822 | 0.817 | 0.919 | 0.857 | 0.246 | 0.22 | 0.3 | 0.272 | 0.221 | 0.352 | 0.261 | 0.252 | 0.255 | 0.28 | 0.93 | 1.12 | 0.978 | 1.09 | 0.745
11 | RERF-LC-KJ | 0.66 | 0.713 | 0.603 | 0.644 | 0.637 | 0.692 | 0.795 | 0.811 | 0.764 | 0.744 | 0.956 | 1.03 | 0.963 | 1.02 | 0.8 | 0.93 | 1.03 | 0.877 | 0.911 | 0.831
12 | SK-LU-1 | 0.948 | 0.788 | 0.903 | 0.9 | 0.731 | 0.203 | 0.181 | 0.165 | 0.129 | 0.128 | 0.465 | 0.431 | 0.435 | 0.608 | 0.408 | 1.31 | 1.11 | 1.16 | 1.19 | 1.15
13 | SK-MES-1 | 0.843 | 0.628 | 0.785 | 0.549 | 0.476 | 0.315 | 0.275 | 0.305 | 0.223 | 0.162 | 0.863 | 0.816 | 0.858 | 0.651 | 0.611 | 1.18 | 1.17 | 0.952 | 1.03 | 0.987
14 | SW 1573 | 0.63 | 0.495 | 0.577 | 0.433 | 0.393 | 0.402 | 0.501 | 0.403 | 0.406 | 0.574 | 0.51 | 0.464 | 0.502 | 0.439 | 0.384 | 0.812 | 0.875 | 0.951 | 0.834 | 0.721
15 | UMC-11 | 0.955 | 0.961 | 0.966 | 1.03 | 1.06 | 0.481 | 0.437 | 0.436 | 0.535 | 0.492 | – | 0.396 | 0.435 | 0.425 | 0.417 | 0.834 | 0.738 | 1.11 | 1.24 | 0.875
